Measurements: ChEMBL document CHEMBL1201862, “PubChem BioAssay data set” (2004)
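Growth conditions: 96-well plates. Treatment: test compound, 48 hours, 5 concentrations. Analysis: linear interpolation between bracketing concentrations; unreached endpoints set to highest concentration. Abbreviation: GI50, concentration required for 50% inhibition of growth.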 Calls of active or inactive are those of the source. Cut-off read from the data, not from the text of the source: active = GI50 up to about 1.1 µM and inactive = higher.

Columns and labels:
Assay in all cases: DTP human tumour cell line panel, 48 h
DU-145 = tested on: DU-145
MDA-MB-435 = tested on: MDA-MB-435
LOX IMVI = tested on: LOX IMVI
SK-MEL-2 = tested on: SK-MEL-2
UO-31 = tested on: UO-31
KM12 = tested on: KM12
SK-MEL-5 = tested on: SK-MEL-5
T47D = tested on: T47D
SF-539 = tested on: SF-539
SW-620 = tested on: SW-620
NCI/ADR-RES = tested on: NCI/ADR-RES
M14 = tested on: M14
HCC 2998 = tested on: HCC 2998
MDA-N = tested on: MDA-N
HOP-92 = tested on: HOP-92
PC-3 = tested on: PC-3
COLO 205 = tested on: COLO 205
SK-OV-3 = tested on: SK-OV-3
SF-268 = tested on: SF-268

Measured: GI50

CC1(C)OCC2OC3([C@H]4OC(C)(C)O[C@@H]4CO)OC(C)(C)OC3C2O1 (some centres not stated)
inactive: DU-145 > 100 µM | MDA-MB-435 > 100 µM | LOX IMVI > 100 µM | SK-MEL-2 > 100 µM | UO-31 > 100 µM | KM12 > 100 µM | SK-MEL-5 > 100 µM | T47D > 100 µM | SF-539 > 100 µM | SW-620 > 100 µM | NCI/ADR-RES > 100 µM | M14 > 100 µM | HCC 2998 > 100 µM | MDA-N > 100 µM | HOP-92 > 100 µM | PC-3 > 100 µM | COLO 205 > 100 µM

N#CC(NNC(=O)c1c(Cl)c(Cl)c(Cl)c(Cl)c1-c1nc2cc(C(=O)c3ccccc3)ccc2[nH]1)c1ccccc1 (configuration not stated)
inactive: DU-145 24.3 µM | SK-OV-3 13 µM | MDA-MB-435 2.82 µM | LOX IMVI 9.35 µM | SK-MEL-2 8.91 µM | UO-31 14 µM | KM12 7.45 µM | SK-MEL-5 3.4 µM | T47D 4.79 µM | SF-539 3.18 µM | SW-620 8.87 µM | NCI/ADR-RES 3.43 µM | M14 7.46 µM | SF-268 7.83 µM | MDA-N 2.56 µM | HOP-92 15 µM | PC-3 7.14 µM | COLO 205 10 µM

C[C@@H]1CC[C@@H]2[C@@H](C1)O[C@@H]([C@@H](C)OCc1ccccc1)SC2(C)C
inactive: DU-145 30.8 µM | SK-OV-3 24.9 µM | MDA-MB-435 16.9 µM | LOX IMVI 21.2 µM | SK-MEL-2 15.8 µM | UO-31 16.4 µM | KM12 18.7 µM | SK-MEL-5 16.3 µM | T47D 14.7 µM | SF-539 17.2 µM | SW-620 18.4 µM | NCI/ADR-RES 20.1 µM | M14 19.3 µM | HCC 2998 17.9 µM | SF-268 23 µM | MDA-N 18.4 µM | PC-3 19.5 µM | COLO 205 17.6 µM

NC(=O)NCCSC1CCCCC1O (configuration not stated)
inactive: DU-145 > 100 µM | SK-OV-3 > 100 µM | MDA-MB-435 > 100 µM | LOX IMVI > 100 µM | SK-MEL-2 > 100 µM | UO-31 > 100 µM | KM12 > 100 µM | SK-MEL-5 > 100 µM | T47D > 100 µM | SF-539 > 100 µM | SW-620 > 100 µM | NCI/ADR-RES > 100 µM | M14 > 100 µM | SF-268 > 100 µM | MDA-N > 100 µM | HOP-92 > 100 µM | PC-3 > 100 µM | COLO 205 > 100 µM

CCCC(O)c1cn(C(NC(=O)c2ccccc2)P(=O)(OCC)OCC)nn1 (configuration not stated)
inactive: DU-145 > 100 µM | MDA-MB-435 > 100 µM | LOX IMVI > 100 µM | SK-MEL-2 > 100 µM | UO-31 > 100 µM | KM12 > 100 µM | SK-MEL-5 > 100 µM | T47D > 100 µM | SF-539 > 100 µM | SW-620 > 100 µM | NCI/ADR-RES > 100 µM | M14 > 100 µM | HCC 2998 > 100 µM | SF-268 > 100 µM | MDA-N > 100 µM | HOP-92 > 100 µM | PC-3 > 100 µM | COLO 205 > 100 µM

COc1ccc(/C=C(\NC(=O)c2ccccc2)C(=O)NN(C)c2ccnc3cc(Cl)ccc23)cc1OC
inactive: DU-145 27.2 µM | SK-OV-3 > 100 µM | MDA-MB-435 21.3 µM | LOX IMVI 18.7 µM | SK-MEL-2 21.3 µM | UO-31 28.2 µM | KM12 17.6 µM | SK-MEL-5 23.6 µM | T47D 30.4 µM | SF-539 21.5 µM | SW-620 22.1 µM | NCI/ADR-RES 20.1 µM | M14 22.6 µM | SF-268 18.5 µM | MDA-N 24.5 µM | HOP-92 21.4 µM | PC-3 27.4 µM | COLO 205 24.2 µM

CCC(c1nc2ccccc2c(=O)n1NC(=O)C(C)(C)C)C1(O)CCCCC1 (configuration not stated)
inactive: DU-145 > 100 µM | SK-OV-3 > 100 µM | MDA-MB-435 > 100 µM | SK-MEL-2 > 100 µM | UO-31 > 100 µM | KM12 > 100 µM | SK-MEL-5 > 100 µM | T47D > 100 µM | SF-539 > 100 µM | SW-620 > 100 µM | NCI/ADR-RES > 100 µM | M14 > 100 µM | SF-268 > 100 µM | MDA-N > 100 µM | HOP-92 > 100 µM | PC-3 > 100 µM | COLO 205 > 100 µM

CC1=C(/C=C/C(C)=C/C=C/C(C)=C/CO)C(C)(C)CCC1 [RETINOL]
inactive: DU-145 38.3 µM | SK-OV-3 35.2 µM | MDA-MB-435 22.1 µM | LOX IMVI 24.6 µM | SK-MEL-2 20.7 µM | UO-31 17.7 µM | KM12 36.1 µM | SK-MEL-5 17.1 µM | T47D 14.5 µM | SF-539 14.1 µM | SW-620 19.4 µM | NCI/ADR-RES 19.5 µM | M14 16.8 µM | HCC 2998 17.3 µM | SF-268 28.6 µM | MDA-N 36.5 µM | PC-3 38.9 µM | COLO 205 19.1 µM
